From patent publication US20190054051A1, “DOPA Formulations for Treatments of Parkinson's Disease” (The Board of Trustees of the Leland Stanford Junior …, priority 2017, published 2019)

Key:
Format in all cases: in vivo, mice
GRK3 = test: Western blot of GRK3 in intact and lesioned striatum; conditions: normalized to actin; formulation and ranitidine groups compared with the DOPA-treated group, Bonferroni post-hoc
Method: (§1) After behavioral testing, mice again received their assigned injection and then, 45 minutes later, were decapitated under anesthesia. Tissue samples were processed as follows. Briefly, the brain was dissected, rapidly frozen on dry ice, and stored at −80° C. Striatal tissue was collected from 100 μm coronal slices cut at the level of striatum using a cryostat (Leica CM1950, Leica Biosystems Inc, Buffalo Groove, Ill.). Striatal samples from the intact and the lesioned hemisphere were separately collected in 150p1 of lysis solution (Totally RNA, Ambion, Austin, Tex.). Care was taken to make sure that the tissue samples were collected from similar regions in all the brain samples analyzed, since there are differences in the expression of GRKs from rostral to caudal CPu. […]
(§2) Western blots were quantified using band densitometry in Image J software (NIH version). […] Results are represented as group mean±SEM and analyzed using one-way or repeated-measures ANOVA (RM-ANOVA), with post hoc Bonferroni tests. The mouse cylinder test was analyzed with RM-ANOVA, with group (DOPA and DOPA-ranitidine formulations) as a between-group factor and saline vs. DOPA treatment as a within-group factor. AIMs scores were analyzed using the Kruskal Wallis test for pre-testing (DOPA injected animals) and the Mann-Whitney U test for the post-testing sessions (DOPA vs DOPA-ranitidine formulations). […]

SAPK/JNK = test: Western blot of phospho SAPK/JNK and total SAPK/JNK in striatum
Method: as §1, §2

GRK6 = test: Western blot of GRK6 in intact and lesioned striatum; conditions: normalized to actin
Method: as §1, §2

SMILES | GRK3 in the lesioned hemisphere as % expression of the intact side (GRK3) | phosphorylation of p54 versus the ranitidine/DOPA formulation groups (SAPK/JNK; ranitidine alone group) | GRK6 in the lesioned hemisphere versus the intact control side (GRK6) | phospho JNK level in both the intact and the lesioned hemispheres (SAPK/JNK; no differences between hemispheres)
CN/C(=C\[N+](=O)[O-])NCCSCc1ccc(CN(C)C)o1 [Ranitidine, N-(2-[(5-[(dimethylamino)methyl]furan-2-yl)methylthio]ethyl)-N′-methyl-2-nitroethene-1,1-diamine] | significantly attenuated | reduced in both the intact and lesioned hemispheres | enhanced the expression | –
N[C@@H](Cc1ccc(O)c(O)c1)C(=O)O [L-DOPA, L-3,4-dihydroxyphenylalanine] | significantly reduced in the lesioned hemisphere | – | Only a marginal degree of down regulation | elevated
